In the supplement of paper PMC10307832:

Experiments:
Assay in all cases: relative viability (nuclei count vs DMSO), 5 days (fraction); higher = more cells survive
AZD5582 + Phenformin = compound: C[C@@H](C(=O)N[C@@H](C1CCCCC1)C(=O)N2CCC[C@H]2C(=O)N[C@@H]3[C@@H](CC4=CC=CC=C34)OCC#CC#CCO[C@@H]5CC6=CC=CC=C6[C@@H]5NC(=O)[C@@H]7CCCN7C(=O)[C@H](C8CCCCC8)NC(=O)[C@H](C)NC)NC [AZD5582] + N=C(N)NC(=N)NCCc1ccccc1 [Phenformin] (partner 250 µM)
In short: (§1)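 Lung cancer cell lines in 1536-well plates got either a single drug or a fixed anchor-drug dose together with five library-drug doses (not always all listed) in √10 steps, by pin tool, on the day after seeding. Nuclei were counted after 5 days, and relative viability is the treated-to-vehicle ratio of nuclei counts. Values are medians of duplicate plates.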

AZD5582 + Vorinostat = compound: C[C@@H](C(=O)N[C@@H](C1CCCCC1)C(=O)N2CCC[C@H]2C(=O)N[C@@H]3[C@@H](CC4=CC=CC=C34)OCC#CC#CCO[C@@H]5CC6=CC=CC=C6[C@@H]5NC(=O)[C@@H]7CCCN7C(=O)[C@H](C8CCCCC8)NC(=O)[C@H](C)NC)NC [AZD5582] + O=C(CCCCCCC(=O)Nc1ccccc1)NO [Vorinostat] (partner 1 µM)
In short: as §1

Temozolomide + Lapatinib = compound: Cn1nnc2c(C(N)=O)ncn2c1=O [Temozolomide] + CS(=O)(=O)CCNCc1ccc(-c2ccc3ncnc(Nc4ccc(OCc5cccc(F)c5)c(Cl)c4)c3c2)o1 [Lapatinib] (partner 2 µM)
In short: as §1

[1] = compound: Cn1nnc2c(C(N)=O)ncn2c1=O [Temozolomide] + O=C(CCCCCCC(=O)Nc1ccccc1)NO [Vorinostat] (partner 1 µM)
In short: as §1

Row | Cell Line | relative viability (AZD5582 + Phenformin; first compound 0.001581 µM) | relative viability (AZD5582 + Phenformin; first compound 0.005 µM) | relative viability (AZD5582 + Phenformin; first compound 0.01581 µM) | relative viability (AZD5582 + Phenformin; first compound 0.05 µM) | relative viability (AZD5582 + Vorinostat; first compound 0.001581 µM) | relative viability (AZD5582 + Vorinostat; first compound 0.005 µM) | relative viability (AZD5582 + Vorinostat; first compound 0.01581 µM) | relative viability (AZD5582 + Vorinostat; first compound 0.05 µM) | relative viability (Temozolomide + Lapatinib; first compound 0.2 µM) | relative viability (Temozolomide + Lapatinib; first compound 0.6325 µM) | relative viability (Temozolomide + Lapatinib; first compound 2 µM) | relative viability (Temozolomide + Lapatinib; first compound 6.325 µM) | relative viability (Temozolomide + Lapatinib; first compound 20 µM) | relative viability ([1]; first compound 0.2 µM) | relative viability ([1]; first compound 0.6325 µM) | relative viability ([1]; first compound 2 µM) | relative viability ([1]; first compound 6.325 µM) | relative viability ([1]; first compound 20 µM)
1 | NCI-H650 | 0.417 | 0.401 | 0.342 | 0.385 | 0.316 | 0.305 | 0.308 | 0.619 | 1.02 | 0.888 | 0.995 | 1.03 | 1.07 | 0.522 | 0.41 | 0.462 | 0.299 | 0.469
2 | LC-2-ad | 0.607 | 0.64 | 0.338 | 0.585 | 0.697 | 0.726 | 0.704 | 0.804 | 0.961 | 1.02 | 0.962 | 0.964 | 0.895 | 0.824 | 0.717 | 0.726 | 0.733 | 0.668
3 | NCI-H1299 | – | – | – | – | – | – | – | – | 1.03 | 0.98 | 0.994 | 0.97 | 0.962 | – | – | – | – | –
4 | NCI-H3122 | 0.362 | 0.376 | 0.354 | 0.19 | 0.946 | 1.09 | 0.924 | 0.236 | 1.01 | 1.03 | 1.09 | 0.968 | 1.04 | 1.11 | 0.988 | 1.17 | 0.998 | 0.96
5 | EBC-1 | – | – | – | – | – | – | – | – | 0.197 | 0.193 | 0.252 | 0.203 | 0.194 | – | – | – | – | –
6 | NCI-H441 | 0.621 | 0.799 | – | 0.674 | 0.723 | 0.708 | 0.889 | 0.921 | – | – | – | – | – | 0.986 | 0.885 | 0.773 | 0.703 | 0.691
7 | LOU-NH91 | 0.716 | 0.698 | 0.592 | 0.741 | 0.867 | 0.872 | 0.794 | 0.842 | 0.747 | 0.782 | 0.791 | 0.732 | 0.763 | 0.799 | 0.934 | 1.03 | 0.923 | 0.797
8 | LXF-289 | 0.484 | 0.488 | 0.409 | 0.486 | 0.698 | 0.779 | 0.641 | 0.905 | 0.939 | 0.934 | 0.919 | 0.847 | 0.861 | 0.782 | 0.826 | 0.65 | 0.712 | 0.712
9 | HCC-827 | 0.391 | 0.383 | 0.368 | 0.387 | 0.771 | 0.892 | 0.694 | 0.822 | 0.207 | 0.238 | 0.191 | 0.191 | 0.195 | 0.637 | 0.785 | 0.817 | 0.876 | 0.169
10 | RERF-LC-KJ | – | – | 0.35 | 0.197 | 0.306 | 0.225 | 0.655 | 0.283 | 0.819 | 0.922 | 0.909 | 0.767 | 0.846 | 0.602 | 0.7 | 0.756 | 0.646 | 0.663
11 | NCI-H2228 | 0.335 | 0.296 | 0.321 | 0.0886 | 0.81 | 0.702 | 0.667 | 0.645 | 1.15 | 1.04 | 1.3 | 0.959 | 1.18 | 0.978 | 0.443 | 0.695 | 0.175 | 0.486
12 | SW 1573 | 0.394 | 0.466 | 0.37 | 0.499 | 0.492 | 0.865 | 1.12 | 1.12 | 1.13 | 1.17 | 1.04 | 0.897 | 1.02 | 0.794 | 1.04 | 1.08 | 0.803 | 0.633
13 | NCI-H1792 | – | 0.323 | – | 1.12 | – | – | – | – | 1.06 | 0.973 | 0.895 | 0.899 | 0.861 | – | – | – | – | –
14 | ChaGo-K-1 | 0.445 | 0.54 | 0.4 | 0.513 | 0.718 | 0.767 | 0.711 | 0.739 | – | – | – | – | – | 0.85 | 0.724 | 0.719 | 0.738 | 0.733
15 | NCI-H1650 | 0.461 | 0.492 | 0.342 | 0.394 | 0.528 | 0.534 | 0.576 | 0.572 | 0.991 | 0.925 | 0.783 | 0.662 | 0.743 | 0.529 | 0.639 | 0.578 | 0.648 | 0.483
16 | HARA | 0.415 | 0.501 | 0.493 | 0.403 | 0.659 | 0.69 | 0.441 | 0.672 | 0.777 | 0.721 | 0.975 | 0.658 | 0.732 | 0.575 | 0.514 | 0.511 | 0.573 | 0.521
17 | SW 900 | 0.502 | 0.632 | 0.414 | 0.401 | 0.435 | 0.444 | 0.364 | 0.295 | – | – | – | – | – | 0.741 | 0.498 | 0.569 | 0.373 | 0.344
18 | NCI-H520 | 0.451 | 0.539 | 0.528 | 0.53 | 0.833 | 0.724 | 0.758 | 0.712 | 0.927 | 0.87 | 1 | 0.903 | 0.993 | 0.79 | 0.77 | 0.753 | 0.769 | 0.646
19 | ABC-1 | 0.239 | 0.241 | 0.23 | 0.251 | 1.22 | 1.57 | 0.934 | 1.08 | 0.93 | 1.22 | 1.18 | 1.16 | 1.3 | 1.48 | 0.771 | 0.907 | 1.21 | 1.08
20 | NCI-H1734 | 0.418 | 0.516 | 0.37 | 0.455 | 0.754 | 0.85 | 0.889 | 0.877 | 1.12 | 1.06 | 1.07 | 0.955 | 1.05 | 0.814 | 0.79 | 0.861 | 0.709 | 0.831
